{"source": "patent US10443089B2", "about": "“Methods of multiplexing DNA sensors and localizing DNA sensor” (NATIONAL CENTRE FOR BIOLOGICAL SCIENCES (NCBS-TIFR), priority 2013, dated 2019)", "key": {"[1]": {"tested_on": "scFv-furin expressing IA2.2 cells", "assay": "SimpHony of early endosomes and TGN with and without Brefeldin A", "assay_type": "cell-based, Chinese Hamster", "conditions": "BFA 20 μg/mL, 10 min", "text": "SimpHony is applied on BFA-induced tubules positive for furin marked by I^FuA546/A647 while simultaneously marking transferrin containing endosomes with Tf-I^TfA488/A647. BFA treated cells show tubular extensions emerging from compartments localize near the MTOC (FIG. 18a). Tf-I^TfA488/A647 in these cells occupies the excluded space of I^FuA546/A647 in the region around the MTOC in addition to a few cytoplasmic endosomes (FIG. 19b).\nFIG. 19 depicts localization of Tf-I^Tf and I^Fu DNA sensors in compartments after BFA treatment. scFv-Furin expressing IA2.2 cells are pulsed with about 500 nM I^FuA546/647 for 2 hours and chased for 30 min in presence of CHX followed by absence (a) or presence (b) of BFA (about 20 μg/mL) treatment of about 10 min at about 37° C. Cells are pulsed with about 500 nM Tf-I^TfA488/A647 in presence of BFA and CHX to label early endosomes. Arrowheads show MTOC. Scale Bar: 10 μm.\nFIG. 22 describes the pH heterogeneity of early endosomes and TGN, pre and post treatment with BFA. IA2.2 cells are pulsed with about 500 nM IFuA546/A647 for about 2 hours and chased for 30 min in presence of about 125 ug/ml CHX followed by absence or presence of BFA (about 20 μg/mL) treatment of about 10 min at about 37° C. Cells are further treated with about 500 nM Tf-ITfA488/A647 in presence of about 20 μg/mL BFA and about 125 ug/ml CHX to label early endosomes."}, "[2]": {"tested_on": "IA2.2 cells expressing scFv-furin", "assay": "SimpHony of early and late endosomes with and without Dynasore", "assay_type": "cell-based, Chinese Hamster", "experimental": "The DNA sensor of the present disclosure is applied to this system, by marking early endosomes with about 500 nM Tf-I^TfA488/A647 and late endosomes with about 500 nM I^FuA546/A647 in the presence and absence of Dynasore. I^n the absence of Dynasore, early endosomes undergo active fusion and fission; showing an average pH of about 6.05±0.07 (FIG. 17) while the late endosomes show an average pH of about 5.43±0.3.\nFIG. 17 depicts Dynasore mediated arrest of endosomal fission. Early/sorting and late endosomes in IA2.2 cells expressing scFv-furin are marked with about 500 nM Tf-I^TfA488/A647 at 37° C. for 10 min. Time lapse images of control cells (−Dy) where no dynasore is added, (+Dy) in presence of about 160 μM dynasore and (W) after dynasore is washed out and incubated for about 10 min at about 37° C. for recovery. Images are acquired with a time interval of about 2 s over 2 min period and compressed to a movie playing at 7 fps."}, "[3]": {"assay": "Comparison of DNA pH sensors with pH sensitive organic dyes and GFP based probes", "conditions": "for Working regime: pH"}, "[4]": {"tested_on": "35 bp dsDNA tag, d(AT)4", "assay": "Competitive ELISA, binding affinity of purified scFv to immobilized dsDNA", "experimental": "The binding affinity of this scFv with the 35 bp DNA duplex is assayed using competitive ELISA that is performed using a fixed amount of immobilized dsDNA (25 pmoles) followed by the addition of a fixed concentration of scFv (200 nM) in the presence of an increasing concentration of unlabeled dsDNA (I^comp, about 10 nM to about 1 μM) in solution.\nThis experiment is carried out to find strength of binding of clone C1 with DNA. The affinity and specificity of scFv is analyzed by ELISA after purifying the scFv. Streptavidin-coated 96-well plate is incubated with dsDNA epitope used for screening in 5×SSCT (about 75 mM Sodium citrate, about 750 mM NaCl, about 0.05% Tween-20) for about 1.5 hours for immobilization of dsDNA onto the Streptavidin-coated 96-well plate.\nFor competition experiments, dsDNA immobilized onto Streptavidin-coated 96-well plate is incubated with the mixture of increasing amount of (from 0 to 10 micromoles) of competing nucleic acid, purified scFv (about 200-300 nM) and 1 in 1000 dilution of anti myc-tag antibody for about 1.5 hours at room temperature. […] Bound scFvs are detected by addition of 100 microliters of 2×TMB/H202 and OD at 450 nm is recorded and normalized with respect to the well where no competitor is added. […]"}, "[5]": {"tested_on": "DNA epitopes ssDNA, dsDNA, R1, R2, RM", "assay": "ELISA screen of scFv clones for sequence specific binding to DNA epitopes", "conditions": "epitopes R1, R2, RM of the 35 bp dsDNA; listed as C1", "experimental": "The 35 bp dsDNA is divided into three regions: • (i) One region is composed of 13 bp of the antigen from the 3′ end (known as Region 1 (R1), FIG. 6a, red), • (ii) the second region corresponds to base pairs 16 to 28 from 3′ end (Region 2 (R2), FIG. 6a, green) and • (iii) the third region is an overlap of regions 1 and 2 (Region M (RM), FIG. 6a, blue).\nThese three duplexes are annealed and then immobilized on three different 96-well plates. scFv supernatant of the same clones is added to the wells and incubated as described earlier. […] Thus, the scFvs corresponding to these clones recognize only the first 8 base pairs of the 35 bp dsDNA i.e., the sequence d(AT)4.\nIn order to screen for sequence specificity of binding to duplex DNA, each of the selected clones are similarly assayed by ELISA to a set of surface-immobilized DNA scaffolds. These correspond to a single stranded DNA sequence comprising only the biotinylated strand of the 35 bp dsDNA the 35 bp dsDNA duplex (dsDNA), and three shorter duplex regions R1, R2 and RM corresponding to various sections on the 35 bp dsDNA duplex. R1 corresponds to a […] region at the 3′ terminus of the biotinylated ssDNA oligonucleotide, R2 correspond to a 13 bp region abutting R1, while RM corresponded to a 13 bp region overlapping the 5′ end of R1 and the 3′ of R2. […]"}}, "note": "“Also recorded” adds a separate entry of the source.", "data": [{"molecule": "C[C@H]1CCC/C=C/[C@@H]2C[C@H](O)C[C@H]2[C@H](O)/C=C/C(=O)O1", "note": "[Brefeldin A]", "values": [{"measurement": "morphology of furin containing compartments", "setting": "[1]", "result": "tubulate extensively"}]}, {"molecule": "O=C(N/N=C/c1ccc(O)c(O)c1)c1cc2ccccc2cc1O", "note": "[Dynasore]", "values": [{"measurement": "average pH of early endosomes after wash out", "setting": "[2]; Dynasore washed out", "result": "completely restored"}, {"measurement": "early endosome morphology and dynamics", "setting": "[2]; presence of 160 μM dynasore", "result": "extensive tubulation of the early endosomes as well as their arrested dynamics"}]}, {"molecule": "O=C1OC2(c3cc(F)c(O)cc3Oc3cc(O)c(F)cc32)c2ccccc21", "note": "[Oregon green 488]", "values": [{"measurement": "pKa", "setting": "[3]", "result": 4.7}, {"measurement": "Working regime", "setting": "[3]", "result": "4.0-5.0"}]}, {"molecule": "Fluorescein (FITC)", "values": [{"measurement": "Working regime", "setting": "[3]", "result": "5-8"}]}, {"molecule": "clone C1: scFv recombinant antibody from phage display binding dsDNA sequence d(AT)4; SEQ ID No. 16 (protein, scFv Protein Sequence; DNA_BIND (1)..(271)) scFv: MAEVQLLESGGGLVQPGGSLRLSCAASGFTFSSYAMSWVRQAPGKGLEWVSTITKRGERTKYADSVKGRFTISRDNSKNTLYLQMNSLRAEDTAVYYCAKSTRAFDYWGQGTLVTVSSGGGGSGGGGSGGGGSTDIQMTQSPSSLSASVGDRVTITCRASQSISSYLNWYQQKPGKAPKLLIYGASYLQSGVPSRFSGSGSGTDFTLTISSLQPEDFATYYCQQTRFSPNTFGQGTKVEIKRAAAHHHHHHGAAEQKPISEEDLNGAAGGD", "values": [{"measurement": "relative binding constant", "setting": "[4]; 25 pmoles immobilized dsDNA, 200 nM scFv, competitor I^comp 10 nM to 1 μM", "result": "about 1.25×10^7 M^−1"}, {"measurement": "Kd", "setting": "[4]; 35 bp DNA duplex / d(AT)4", "result": 80, "unit": "nM"}, {"measurement": "DNA epitope specificity by ELISA", "setting": "[5]", "result": "binding to R1 and no other region; also recorded: binds a DNA sequence ATATATAT"}]}]}
